{"source": "patent US11512268B2", "about": "“Storage-stable enzyme preparations, their production and use” (BASF SE, priority 2017, dated 2022)", "key": {"Lipolase": {"target": "T1, Lipolase (Thermomyces lanuginosus, UniProt O59952)", "T1 construct": "purchased Sigma-Aldrich", "T1 sequence (O59952 23-291)": "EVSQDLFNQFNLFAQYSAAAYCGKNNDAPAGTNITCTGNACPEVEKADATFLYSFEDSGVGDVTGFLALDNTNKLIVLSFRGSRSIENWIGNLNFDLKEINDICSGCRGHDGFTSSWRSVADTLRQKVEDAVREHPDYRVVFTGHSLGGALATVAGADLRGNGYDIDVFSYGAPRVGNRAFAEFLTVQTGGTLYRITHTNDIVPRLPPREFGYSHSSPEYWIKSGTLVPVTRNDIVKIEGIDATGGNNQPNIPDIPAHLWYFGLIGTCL", "test": "storage stability of lipase (Lipolase activity, pNitrophenol-valerate substrate) in liquid formulations at 37° C.", "assay_type": "biochemical, Thermomyces lanuginosa", "settings": "Lipolase 0.4 wt %, storage at 37° C.", "protocol": "(§1) The storage stability of Lipase and Protease in water was assessed at 37° C.\n(§2) Base test formulations were manufactured by making base formulations I to VI by mixing the components according to Table 1.\n(§3) The respective salt (component (a)) or comparative compound was added, if applicable, to the respective base formulation in amounts as indicated in Table 1.\n(§4) The amount of enzyme as provided in Table 1 refers to active protein. Either lipase or protease was added, depending on which enzyme activity was measured.\n(§5) Lipolase® 100 L (CAS-No. 9001-62-1, EC-No. 232-619-9) was purchased from Sigma-Aldrich. Savinase® 16.0 L (CAS-No. 9014-01-1, EC-No. 232-752-2) was purchased from Sigma-Aldrich.\nLipolase activity at certain points in time as indicated in Table 2 was be determined by employing pNitrophenol-valerate (2.4 mM pNP-C5 in 100 mM Tris pH 8.0, 0.01% Triton X100) as a substrate. The absorption was measured at 20° C. every 30 seconds over 5 minutes at 405 nm. The slope (absorbance increase at 405 nm per minute) of the time dependent absorption-curve is directly proportional to the activity of the lipase.\nThe lipolytic activity values provided in Table 2 were calculated referring to the 100% value determined in the reference formulation at the time 0.\n(§6) The nomenclature of formulations is as follows: the Roman number before the full stop characterizes the base formulation, the Arabian number the type of salt (A.# inventive salt (component (a)); C-(A.#) comparative compound). Zero (“0”): no salt, but diethylene glycol."}, "Savinase": {"target": "T2, Savinase (Lederbergia lenta, UniProt P29600)", "T2 construct": "purchased Sigma-Aldrich", "T2 sequence (P29600 1-269)": "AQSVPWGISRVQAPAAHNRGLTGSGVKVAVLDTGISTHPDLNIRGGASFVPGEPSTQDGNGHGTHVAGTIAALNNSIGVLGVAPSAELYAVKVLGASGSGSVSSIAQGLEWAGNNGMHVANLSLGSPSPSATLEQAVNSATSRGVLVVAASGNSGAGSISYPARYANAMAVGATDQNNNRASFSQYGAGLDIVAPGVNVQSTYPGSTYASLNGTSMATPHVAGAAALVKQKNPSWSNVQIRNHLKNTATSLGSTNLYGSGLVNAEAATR", "test": "storage stability of protease (Savinase activity, Suc-AAPF-pNA substrate) in liquid formulations at 37° C.", "assay_type": "biochemical", "settings": "Savinase 16.0 L 0.5 wt %, storage at 37° C.", "protocol": "as §1, §2, §3, §4, §5\nSavinase activity at certain points in time as indicated in Table 3 was be determined by employing Succinyl-Ala-Ala-Pro-Phe-p-nitroanilide (Suc-AAPF-pNA, short AAPF) as substrate. pNA is cleaved from the substrate molecule by proteolytic cleavage, resulting in release of yellow color of free pNA which was determined by measuring OD405. Measurement were done at 20° C.\nThe proteolytic activity values provided in Table 3 were calculated referring to the 100% value determined in the reference formulation at the time 0.\nas §6"}}}
{"smiles": "C[N+](C)(C)CCO.C[N+](C)(C)CCO.C[N+](C)(C)CCO.O=C([O-])CC(O)(CC(=O)[O-])C(=O)[O-]", "note": "[C-(A.18)]", "values": [{"measurement": "lipase activity", "setting": "Lipolase; base formulation I., component (a) 2.5 wt %, 1 d", "value": 91, "unit": "%"}, {"measurement": "lipase activity", "setting": "Lipolase; base formulation I., component (a) 2.5 wt %, 3 d", "value": 84, "unit": "%"}, {"measurement": "lipase activity", "setting": "Lipolase; base formulation I., component (a) 2.5 wt %, 6 d", "value": 72, "unit": "%"}, {"measurement": "lipase activity", "setting": "Lipolase; base formulation I., component (a) 2.5 wt %, 10 d", "value": 55, "unit": "%"}, {"measurement": "lipase activity", "setting": "Lipolase; base formulation I., component (a) 2.5 wt %, 15 d", "value": 45, "unit": "%"}, {"measurement": "lipase activity", "setting": "Lipolase; base formulation I., component (a) 2.5 wt %, 20 d", "value": 39, "unit": "%"}, {"measurement": "lipase activity", "setting": "Lipolase; base formulation I., component (a) 2.5 wt %, 25 d", "value": 32, "unit": "%"}, {"measurement": "lipase activity", "setting": "Lipolase; base formulation I., component (a) 2.5 wt %, 30 d", "value": 29, "unit": "%"}, {"measurement": "lipase activity", "setting": "Lipolase; base formulation I., component (a) 2.5 wt %, T0", "value": 98, "unit": "%"}, {"measurement": "lipase activity", "setting": "Lipolase; base formulation IV., component (a) 4.0 wt %, 1 d", "value": 91, "unit": "%"}, {"measurement": "lipase activity", "setting": "Lipolase; base formulation IV., component (a) 4.0 wt %, 3 d", "value": 84, "unit": "%"}, {"measurement": "lipase activity", "setting": "Lipolase; base formulation IV., component (a) 4.0 wt %, 6 d", "value": 72, "unit": "%"}, {"measurement": "lipase activity", "setting": "Lipolase; base formulation IV., component (a) 4.0 wt %, 10 d", "value": 58, "unit": "%"}, {"measurement": "lipase activity", "setting": "Lipolase; base formulation IV., component (a) 4.0 wt %, 15 d", "value": 49, "unit": "%"}, {"measurement": "lipase activity", "setting": "Lipolase; base formulation IV., component (a) 4.0 wt %, 20 d", "value": 46, "unit": "%"}, {"measurement": "lipase activity", "setting": "Lipolase; base formulation IV., component (a) 4.0 wt %, 25 d", "value": 39, "unit": "%"}, {"measurement": "lipase activity", "setting": "Lipolase; base formulation IV., component (a) 4.0 wt %, 30 d", "value": 35, "unit": "%"}, {"measurement": "lipase activity", "setting": "Lipolase; base formulation IV., component (a) 4.0 wt %, T0", "value": 95, "unit": "%"}, {"measurement": "lipase activity", "setting": "Lipolase; base formulation VI., component (a) 4.0 wt %, 1 d", "value": 90, "unit": "%"}, {"measurement": "lipase activity", "setting": "Lipolase; base formulation VI., component (a) 4.0 wt %, 3 d", "value": 83, "unit": "%"}, {"measurement": "lipase activity", "setting": "Lipolase; base formulation VI., component (a) 4.0 wt %, 6 d", "value": 75, "unit": "%"}, {"measurement": "lipase activity", "setting": "Lipolase; base formulation VI., component (a) 4.0 wt %, 10 d", "value": 58, "unit": "%"}, {"measurement": "lipase activity", "setting": "Lipolase; base formulation VI., component (a) 4.0 wt %, 15 d", "value": 50, "unit": "%"}, {"measurement": "lipase activity", "setting": "Lipolase; base formulation VI., component (a) 4.0 wt %, 20 d", "value": 48, "unit": "%"}, {"measurement": "lipase activity", "setting": "Lipolase; base formulation VI., component (a) 4.0 wt %, 25 d", "value": 37, "unit": "%"}, {"measurement": "lipase activity", "setting": "Lipolase; base formulation VI., component (a) 4.0 wt %, 30 d", "value": 32, "unit": "%"}, {"measurement": "lipase activity", "setting": "Lipolase; base formulation VI., component (a) 4.0 wt %, T0", "value": 96, "unit": "%"}, {"measurement": "protease activity", "setting": "Savinase; base formulation III., component (a) 2.5 wt %, 1 d", "value": 94, "unit": "%"}, {"measurement": "protease activity", "setting": "Savinase; base formulation III., component (a) 2.5 wt %, 3 d", "value": 85, "unit": "%"}, {"measurement": "protease activity", "setting": "Savinase; base formulation III., component (a) 2.5 wt %, 6 d", "value": 72, "unit": "%"}, {"measurement": "protease activity", "setting": "Savinase; base formulation III., component (a) 2.5 wt %, 10 d", "value": 54, "unit": "%"}, {"measurement": "protease activity", "setting": "Savinase; base formulation III., component (a) 2.5 wt %, 15 d", "value": 43, "unit": "%"}, {"measurement": "protease activity", "setting": "Savinase; base formulation III., component (a) 2.5 wt %, 20 d", "value": 35, "unit": "%"}, {"measurement": "protease activity", "setting": "Savinase; base formulation III., component (a) 2.5 wt %, 25 d", "value": 28, "unit": "%"}, {"measurement": "protease activity", "setting": "Savinase; base formulation III., component (a) 2.5 wt %, 30 d", "value": 14, "unit": "%"}, {"measurement": "protease activity", "setting": "Savinase; base formulation III., component (a) 2.5 wt %, T0", "value": 94, "unit": "%"}, {"measurement": "protease activity", "setting": "Savinase; base formulation V., component (a) 4.0 wt %, 1 d", "value": 90, "unit": "%"}, {"measurement": "protease activity", "setting": "Savinase; base formulation V., component (a) 4.0 wt %, 3 d", "value": 83, "unit": "%"}, {"measurement": "protease activity", "setting": "Savinase; base formulation V., component (a) 4.0 wt %, 6 d", "value": 64, "unit": "%"}, {"measurement": "protease activity", "setting": "Savinase; base formulation V., component (a) 4.0 wt %, 10 d", "value": 50, "unit": "%"}, {"measurement": "protease activity", "setting": "Savinase; base formulation V., component (a) 4.0 wt %, 15 d", "value": 40, "unit": "%"}, {"measurement": "protease activity", "setting": "Savinase; base formulation V., component (a) 4.0 wt %, 20 d", "value": 33, "unit": "%"}, {"measurement": "protease activity", "setting": "Savinase; base formulation V., component (a) 4.0 wt %, 25 d", "value": 25, "unit": "%"}, {"measurement": "protease activity", "setting": "Savinase; base formulation V., component (a) 4.0 wt %, 30 d", "value": 16, "unit": "%"}, {"measurement": "protease activity", "setting": "Savinase; base formulation V., component (a) 4.0 wt %, T0", "value": 83, "unit": "%"}]}
